Target: Genome polyprotein (Hepatitis C virus genotype 3a (isolate NZL1) (HCV), UniProt Q81258)
Assay: Inhibition Assay: HCV polymerase inhibition assay: HCV polymerase reactions were carried out using a modified mothod of Howe et al., Antimicrobial Agents and Chemotherapy 2004 48(12): 4813-4821.

Genome polyprotein, sequence (Q81258 2431-3021 limits assumed): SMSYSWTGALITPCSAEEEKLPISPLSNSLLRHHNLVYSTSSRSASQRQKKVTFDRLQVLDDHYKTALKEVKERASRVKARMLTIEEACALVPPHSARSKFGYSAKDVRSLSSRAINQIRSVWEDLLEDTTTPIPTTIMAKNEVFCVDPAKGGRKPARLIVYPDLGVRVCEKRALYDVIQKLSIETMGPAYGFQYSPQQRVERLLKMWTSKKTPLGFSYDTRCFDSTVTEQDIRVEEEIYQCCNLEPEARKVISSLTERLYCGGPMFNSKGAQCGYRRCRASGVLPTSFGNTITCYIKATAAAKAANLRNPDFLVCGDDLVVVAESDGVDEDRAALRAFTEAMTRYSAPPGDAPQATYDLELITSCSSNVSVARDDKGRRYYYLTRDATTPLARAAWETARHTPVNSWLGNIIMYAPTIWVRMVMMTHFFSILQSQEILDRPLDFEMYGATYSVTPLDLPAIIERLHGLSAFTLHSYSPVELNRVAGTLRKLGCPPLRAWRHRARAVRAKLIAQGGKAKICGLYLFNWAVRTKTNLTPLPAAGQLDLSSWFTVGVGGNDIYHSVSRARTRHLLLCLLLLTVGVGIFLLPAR

`CNC(=O)c1c2cc(C3CC3)c(N(CCCNC(=O)c3ncoc3C)S(C)(=O)=O)cc2nn1-c1ccc(Br)cc1` gave an IC50 of 30 nM.

— ChEMBL document CHEMBL3638530, “Viral polymerase inhibitors” (2013)
